Results on 2 compounds are retold here after patent EP2653477B1, “SCORPION ACTIVE PEPTIDES AND PREPARATION METHODS AND APPLICATIONS THEREOF” (Wuhan More Biotechnology Co., Ltd., priority 2010, dated 2012).

For one data set, the system named is rheumatoid arthritis. Put plainly: pristane-induced rheumatoid arthritis in SD rats, joint score and hind foot plantar swelling. It is filed as in vivo. Also on record: key to Score of joint: clinical score 1-4: 1 joint red/swollen=1 ... severe whole-limb arthritis=4. Conditions: x±s, n=10; for Score of joint: arthritis rats, polypeptides 100 µg·kg^-1 (methotrexate 1.75 µg·kg^-1) subcutaneously once every day, score 1-4; for The swelling degree after the inflammation: volume difference of hind foot before and after the modeling. The method, then: […] Female (♀) specific pathogen free (SPF) inbred line SD rats (Wuhan University Laboratory Animal Center), body weight 150±10 g, were selected, and pristane was injected intradermally at the base of the tail of rats in experimental groups at a dose of 0.2 ml/rat, after they were acclimatized in a clean-grade environment for 1 week. Rheumatoid arthritis appeared after the rats were raised for only 2 weeks.
The rats having arthritis were randomized into: normal control group (negative control group), model negative control group (model rat + normal saline), model positive control group (model rat + methotrexate), administration group A (model rat + ADMR-011 polypeptide), administration group B (model rat + ADMR-016 polypeptide), administration group C (model rat + ADMR-019 polypeptide), administration group D (model rat + ADMR-023 polypeptide), and administration group E (model rat + ADMR-028 polypeptide), 10 rats for each group. The administration groups were injected subcutaneously at a dose of 100 µg·kg^-1, once every day in the morning, and administered continuously; the normal control group and the model negative control group were injected subcutaneously with equivalent amount of normal saline; and the model positive control group were injected subcutaneously with methotrexate (MTX) at a dose of 1.75 µg·kg^-1, once every day, and administered continuously.
The highest clinical score for each animal was recorded, and the average value of them was taken to be the average clinical score. The scoring criteria were: one joint of a rat was red and swollen, 1 point; two joints of a rat were red and swollen, 2 points; all the joints of a rat were red and swollen, 3 points; severe arthritis in the entire limb of a rat, 4 points. Table 2. Arthritis scores for rats of various experimental groups (-x±s)
From day 8 of the experiment, the hind foot plantar volume of the rat was measured and recorded every other day for 21 consecutive days, and the swelling degree (mL) was calculated according to the volume difference before and after the modeling. Table 3. The swelling degree of rats in various experimental groups (-x±s)

Another data set has as its system Wistar rat EAE model. Put plainly: EAE (multiple sclerosis) model in Wistar rats induced by GPSCH-CFA, clinical scoring. The class given is in vivo. Conditions: 100 µg·kg^-1 subcutaneously once every day, x±s, n=10, score 0-5. From the text: Experimental animals: female inbred line Wistar rats (6∼8 week old, body weigh 150±10 g) and guinea pigs (300∼400 g, purchased from Wuhan University Laboratory Animal Center) were selected.
Formulating a mixed emulsion of whole spinal cord homogenate - Freund's complete adjuvant (GPSCH-CFA): a guinea pig was executed, and the spinal cord was rapidly removed, and prepared into 50% PBS homogenate by a ultrasonic disruptor (Sonics & Materials Inc, America), which was mixed with equal amount of Freund's complete adjuvant (BCG vaccine 10 mg/ml), and was pushed back and forth with syringes until forming a water-in-oil emulsion.
Wistar rat EAE model induced by EAE: GPSCH-CFA emulsion was injected intradermally into the foot pads of both the hind legs of Wistar rats, or simultaneously injected intradermally about 1×10^10 pertussis vaccine. The rats were weighed every day, and observed for their neurological symptoms. Experimental autoimmune encephalomyelitis appeared after the rats had been raised for 2 weeks.
The rats with experimental autoimmune encephalomyelitis (EAE) were divided into […] groups randomly: normal control group (negative control group), model control group (model rats + normal saline), administration group A (model rats + ADMR-011 polypeptide), administration group B (model rats + ADMR-016 polypeptide), administration group C (model rats + ADMR-019 polypeptide), administration group D (model rats + ADMR-023 polypeptide), and administration group E (model rats + ADMR-028 polypeptide), 10 rats for each group. For the administration groups, polypeptides ADMR-011, ADMR-016, ADMR-019, ADMR-023 and ADMR-028 were injected subcutaneously respectively at a dose of 100 µg·kg^-1, once every day in the morning. For the normal control group and the model control group, equivalent amount of normal saline was injected subcutaneously, and administered continuously. […] The highest clinical score for each animal was recorded, and the average value of them was taken to be the average clinical score.
The scoring criteria were: without any clinical symptom, 0 point; disappearance of tension in the tail, and observable mild awkward gait, 1 point; weakness in both the hind limbs, which can recover after passive body flipping, 2 points; paralysis in both the hind limbs, which can not recover after passive body flipping, 3 points; tetraplegia accompanied by incontinence of urine and feces, 4 points; moribund state or death, 5 points. Table 1. Scores for rats of various experimental groups in the EAE model (-x±s)

For another data set, the system named is Kunming mice. Put plainly: toxicity study in mice, single intraperitoneal injection, 7 days observation. The class given is in vivo. As to conditions: 10 mg/kg intraperitoneally once (100 times the dose for animal model), observed 7 days. Here is the method:
18∼20 g Kunming mice were selected, and divided into 4 groups, 8 male mice and 8 female mice for each group. The lyophilized powders of scorpion active polypeptides ADMR-011, ADMR-016, ADMR-019, ADMR-023 and ADMR-028 were dissolved with normal saline respectively, and the 3 groups of mice were injected intraperitoneally once respectively with polypeptide solution at a dose of 10 mg/kg (100 times of the dose for animal model), and the fourth group were injected with equivalent amount of normal saline as control.
After the administration, the respiration, motor and heartbeat in animals of all the groups were all normal, without significant abnormal reaction. 7 days after the administration, all the animals were conducted gross anatomy to observe the volume, color and texture of the main organs (heart, liver, spleen, lung, and kidney), and there was no macroscopic lesion. There were no significant difference between the 3 administration groups and the normal saline group.

A further data set addresses T1, potassium channel Kv1.3 (Homo sapiens, UniProt P22001).
T1 construct: expressed in transfected cells; host or cells: COS-7 cells, selected with 0.8 mg/mL geneticin
Put plainly: whole-cell patch clamp, inhibition of Kv1.3 current in transfected COS-7 cells. It is filed as cell-based. As to conditions: potassium channel Kv1.3 in COS-7 cells, read-out: polypeptide concentrations that inhibit the current by half (IC50 value). Here is the method:
COS-7 cells were cultured in a DMEM medium containing 10% fetal calf serum, at 37° C, 5% CO2. The recombinant plasmids of potassium channel Kv1.3 were transfected by using a Sofast™ transfection kit, and the transfected cells were selectively cultured in a medium containing 0.8 mg/mL geneticin. The pharmacological activities of scorpion active polypeptides ADMR-011, ADMR-016, ADMR-019, ADMR-023 and ADMR-028 were tested and analyzed by using an instrument of whole-cell patch clamp (EPC-10 dual-channel patch clamp amplifier HEKA, Elektronik, Lambrecht, Germany). The setting of the experimental parameters, the collecting of data, and the applying of stimulus were all controlled by Pulse software (Elektronik, Lambrecht, Germany). The filter of the instrument was set to be 10 kHz (Bessel), and the electrode impedance was 2∼5 MΩ. After the formation of giga-seal (1∼5 GΩ) between the electrode and cell membrane, an automatic c-fast was performed, and the membrane was broken by slightly applying negative pressure, then an automatic c-slow was performed. At a holding potential of -70 mV, depolarizing pulses, incrementing in 10 mV steps, with a step width of 80 ms , were given to stimulate from -60 mV to +50 mV, and the condition of current was observed. The polypeptides ADMR-011, ADMR-016 and ADMR-019 were accurately perfused, which was achieved by MPS-2 (INBIO Inc, Wuhan, China) perfusing system. After dissolving the three scorpion active polypeptides, they were applied by spraying via DAD Drug Application System (ALA), and the tip of the tube for drug application was about 100 µm away from the cell being recorded.
It can be known from Figure 16 to Figure 20 that, the pharmacological activity of ADMR-011 on potassium channel Kvl.3 was 91 pM, the pharmacological activity of ADMR-016 on potassium channel Kvl.3 was 2.58 nM, the pharmacological activity of ADMR-019 on potassium channel Kv1.3 was 1.41 nM, and the pharmacological activity of ADMR-023 and ADMR-028 on potassium channel Kvl.3 were 0.49 nM and 0.65 nM, respectively. Therefore, they are polypeptides with potent activity that are currently found internationally.
For orientation: In patch-clamp work, channel activity is measured electrically.

Bridge positions count the residues as written; N and C are the ends. Peptide text beside a SMILES is read from it.

T1 sequence (P22001 whole entry): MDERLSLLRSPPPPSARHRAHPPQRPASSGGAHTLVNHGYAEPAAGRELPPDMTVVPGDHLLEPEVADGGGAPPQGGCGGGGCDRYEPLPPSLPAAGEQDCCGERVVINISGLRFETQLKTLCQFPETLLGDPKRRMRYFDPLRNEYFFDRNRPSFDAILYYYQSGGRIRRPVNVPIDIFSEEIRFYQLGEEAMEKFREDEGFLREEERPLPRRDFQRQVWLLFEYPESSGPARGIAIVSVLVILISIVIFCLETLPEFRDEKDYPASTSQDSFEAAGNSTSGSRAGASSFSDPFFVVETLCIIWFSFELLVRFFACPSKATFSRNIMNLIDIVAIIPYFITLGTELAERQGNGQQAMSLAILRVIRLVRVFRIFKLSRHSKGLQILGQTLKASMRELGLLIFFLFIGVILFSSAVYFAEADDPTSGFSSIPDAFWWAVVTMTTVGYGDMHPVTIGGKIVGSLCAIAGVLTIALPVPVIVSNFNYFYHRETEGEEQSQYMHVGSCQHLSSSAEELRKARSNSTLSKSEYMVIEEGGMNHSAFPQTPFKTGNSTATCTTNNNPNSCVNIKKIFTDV

For the compound `CC[C@H](C)[C@@H]1NC(=O)CNC(=O)[C@H](CCC(=O)O)NC(=O)[C@@H]2CSSC[C@@H](C(=O)N[C@@H](Cc3ccc(O)cc3)C(=O)N[C@@H](CCCNC(=N)N)C(=O)O)NC(=O)[C@H](C(C)C)NC(=O)[C@@H]3CSSC[C@H](NC(=O)[C@H](CCC(=O)O)NC(=O)[C@H](CO)NC(=O)[C@H](CO)NC(=O)CNC(=O)[C@H](CC(N)=O)NC(=O)[C@@H](NC(=O)[C@H](CCC(=O)O)NC(=O)[C@H](CCCCN)NC(=O)[C@H](CO)NC(=O)[C@@H](NC(=O)[C@H](Cc4ccc(O)cc4)NC(=O)[C@@H](NC(=O)[C@@H](N)CCC(N)=O)[C@@H](C)CC)[C@@H](C)O)CSSC[C@H](NC(=O)[C@H](CCCCN)NC(=O)CNC(=O)[C@H](CO)NC(=O)[C@H](CCCNC(=N)N)NC(=O)[C@H](CCCCN)NC(=O)CNC(=O)[C@H]([C@@H](C)O)NC1=O)C(=O)N[C@@H]([C@@H](C)CC)C(=O)N[C@@H](CC(N)=O)C(=O)N[C@@H](CCCCN)C(=O)N[C@@H](CCCCN)C(=O)N3)C(=O)N[C@@H](Cc1ccc(O)cc1)C(=O)N[C@@H](CO)C(=O)N[C@@H](Cc1c[nH]cn1)C(=O)N2` [ADMR-011] (H-QIYTSKECNGSSECYSHCEGITGKRSGKCINKKCVCYR-OH; disulfide 8-29, 14-34, 18-36 (inferred); N-terminus and C-terminus assumed), the Score of joint in the data set on rheumatoid arthritis (10 d) came to 1.63±0.57; with rheumatoid arthritis (15 d), 2.07±0.65; in the data set on rheumatoid arthritis (21 d), 1.62±0.59. For the same compound, the “The swelling degree after the inflammation” value turned out to be 0.041 ± 0.012 mL in the data set with rheumatoid arthritis (d8), 0.21 ± 0.06 mL in the data set with rheumatoid arthritis (d15), 0.29 ± 0.09 mL in the data set on rheumatoid arthritis (d22) and 0.24 ± 0.13 mL in the data set on rheumatoid arthritis (d28). Moreover, the Average clinical scores in the data set with Wistar rat EAE model (8 d) was 0.47±0.18; with Wistar rat EAE model (10 d), 0.75±0.21; with Wistar rat EAE model (12 d), 0.83±0.35; in the data set with Wistar rat EAE model (14 d), 0.95±0.37. Also, the toxicity in mice entry in the data set with Kunming mice was “no significant toxicity”. In addition, on potassium channel Kv1.3, the IC50 stood at 0.091 nM.
`CC[C@H](C)[C@H](NC(=O)CNC(=O)[C@@H](N)C(C)C)C(=O)N[C@@H](CC(N)=O)C(=O)N[C@H](C(=O)N[C@@H](CCC(N)=O)C(=O)N[C@H]1CSSC[C@@H]2NC(=O)[C@H](CCC(N)=O)NC(=O)CNC(=O)[C@H](Cc3ccccc3)NC(=O)[C@H](CCCNC(=N)N)NC(=O)[C@H](CCSC)NC(=O)CNC(=O)[C@H](C)NC(=O)[C@H](CC(=O)O)NC(=O)[C@H](CCCCN)NC(=O)[C@@H]3CSSC[C@@H](C(=O)N[C@H](C(=O)N4CCC[C@H]4C(=O)N[C@@H](CCCCN)C(=O)O)[C@@H](C)O)NC(=O)[C@H](CC(=O)O)NC(=O)[C@H](CSSC[C@H](NC(=O)[C@H](CCC(N)=O)NC(=O)CNC(=O)[C@H](CO)NC(=O)[C@H]([C@@H](C)O)NC(=O)[C@H](CC(N)=O)NC1=O)C(=O)N[C@@H](CC(C)C)C(=O)N[C@@H](CCCCN)C(=O)N1CCC[C@H]1C(=O)N3)NC(=O)[C@H](CCCCN)NC(=O)CNC(=O)[C@H](CC(N)=O)NC(=O)[C@H]([C@@H](C)CC)NC2=O)C(C)C` [ADMR-016] (H-VGINVQCNTSGQCLKPCKDAGMRFGQCINGKCDCTPK-OH; disulfide 7-27, 13-32, 17-34 (inferred); N-terminus and C-terminus assumed): the Score of joint with rheumatoid arthritis (10 d) came out at 1.84±0.71; with rheumatoid arthritis (15 d), 2.24±0.53; in the data set on rheumatoid arthritis (21 d) it was 1.96±0.62. The “The swelling degree after the inflammation” value was 0.037 ± 0.012 mL in the data set on rheumatoid arthritis (d8), 0.25 ± 0.07 mL in the data set with rheumatoid arthritis (d15), 0.37 ± 0.08 mL in the data set on rheumatoid arthritis (d22) and 0.33 ± 0.12 mL in the data set with rheumatoid arthritis (d28). Moreover, the Average clinical scores in the data set with Wistar rat EAE model (8 d) was 0.50±0.23; in the data set on Wistar rat EAE model (10 d), 0.87±0.34; with Wistar rat EAE model (12 d), 1.31±0.42; in the data set with Wistar rat EAE model (14 d) it was 1.21±0.49. Also, the toxicity in mice result in the data set on Kunming mice is given as “no significant toxicity”. Moreover, the IC50 at potassium channel Kv1.3 came to 2.58 nM.
